From patent US8148404B2, “Modulators of CB1 receptors” (7TM Pharma A/S, priority 2006, dated 2012)

Molecular target: T1, human CB1 receptor (Homo sapiens, UniProt P21554)
T1 construct: expressed in transfected cells; membranes used
Test: Cannabinoid Receptor-1 functional assay: inhibition of CP55940-induced [35S]GTPγS binding to membranes of CHO-K1 cells expressing human CB1
Assay type: biochemical
Details: 3 nM CP55940, [35S]GTPγS SPA, hCB1 membranes; read-out: IC50 value for antagonizing a CB1 receptor agonist
Description: Transfection and Cell Culture—The cDNA encoding the human CB1 (Cannabinoid Receptor-1) receptor (GenBank accession number NM_016083) was cloned from a human adipose tissue cDNA library and cloned into the eukaryotic expression vector pcDNA3.1 (Invitrogen).
Chinese Hamster Ovary cells (CHO-K1) stably expressing recombinant human CB1 were generated by transfecting the plasmid containing the coding sequence of the human CB1 receptor in CHO-K1 cells, using lipofectamin, according to the manufacturer instructions. Resistant clones were selected in the presence of 600 μg/ml G418 (Life technology). Stably transfected CHO-K1 cells were maintained in Ham's F-12 culture medium (Invitrogen), supplemented with 10% fetal calf serum (Invitrogen), 100 U/ml penicillin, 100 μg/ml streptomycin (Life Technology), and 600 μg/ml G418.
Functional activities of the above examples of compounds of the invention were assessed in vitro by measuring their ability to inhibit CP55940-induced [^35S]GTPγS binding to membranes prepared from CHO-K1 cells expressing the human CB1 receptor (described in Transfection and Cell Culture). CP55940 is a well known non-selective CB1 and CB2 receptor agonist (e.g Felder et al., 1995, Molecular Pharmacology, (48) 443-50). Membranes were prepared by a standard procedure. Briefly, cells were harvested using 10 mM EDTA and collected by centrifugation. Pelleted cells were homogenized in ice-cold 20 mM Hepes (pH 7.4), 10 mM EDTA and protease inhibitors (Complete protease inhibitor cocktail tablet, Roche) using an Ultra Turrax Homogenizer. The homogenate was centrifuged at 14 000 rpm for 45 min. at 4° C. The resultant pellet was resuspended in the same buffer but with only 0.1 mM EDTA and was again centrifuged at 14 000 rpm for 45 min. at 4° C. The resulting pellet (membranes) was resuspended in 20 mM Hepes (pH 7.4), 0.1 mM EDTA, 2 mM MgCl2 and protease inhibitors and protein concentration was determined by Micro BCA Protein Assay Reagent Kit (Pierce Biotechnology) according to the manufacturer instructions. The [^35S]GTPγS SPA (Scintillation Proximity Assay) binding assay was performed by incubating 5 μg/well hCB1-membranes with 1 nM [^35S]GTPγS (Perkin Elmer—NEG 030H) in the presence of 3 nM of CP55940 and various concentrations of the test compounds at room temperature for 1 hr in 96-well microtiter plates. 0.4 mg/well SPA beads (PVT-WGA; RPNQ0001 Amersham Pharmacia Biotech) were then added and the incubation continued for further 30 min. on an orbital shaker. The assay buffer contained 50 mM HEPES (pH 7.5), 50 mM NaCl, 2.5 mM MgCl2, 0.1% BSA, 1 μM GDP and 100 μg/ml Saponin. Microtiter plates were centrifuged at 1500 rpm for 5 min. and radioactivity was read immediately using a Topcounter (PerkinElmer Life Sciences). Data were analyzed and IC50 values determined by non-linear regression using the Prism software (GraphPad Software, San Diego).

T1 sequence (P21554 whole entry): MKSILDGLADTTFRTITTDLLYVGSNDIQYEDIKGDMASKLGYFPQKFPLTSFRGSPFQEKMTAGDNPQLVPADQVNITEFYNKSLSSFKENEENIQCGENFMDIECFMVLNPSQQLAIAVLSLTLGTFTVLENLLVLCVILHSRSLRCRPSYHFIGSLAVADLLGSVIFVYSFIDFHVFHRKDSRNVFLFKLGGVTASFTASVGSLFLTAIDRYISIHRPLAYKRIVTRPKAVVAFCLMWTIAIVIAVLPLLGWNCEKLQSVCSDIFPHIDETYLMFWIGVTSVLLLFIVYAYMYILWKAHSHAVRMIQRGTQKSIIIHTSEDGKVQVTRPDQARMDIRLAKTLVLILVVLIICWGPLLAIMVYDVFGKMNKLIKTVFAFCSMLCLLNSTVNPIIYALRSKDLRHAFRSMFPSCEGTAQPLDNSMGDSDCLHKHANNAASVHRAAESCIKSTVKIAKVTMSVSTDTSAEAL

| SMILES | IC50 |
| --- | --- |
| O=C(O)Cc1c(C(=O)N2CCOCC2)nn(-c2ccccc2Cl)c1-c1ccc(Cl)cc1 [[1.48], [1-(2-Chloro-phenyl)-5-(4-chloro-phenyl)-3-(morpholine-4-carbonyl)-1H-pyrazol-4-yl]-acetic acid] | 3000 to 10000 nM |
| CS(=O)(=O)c1cccc(C2CCN(C(=O)c3nn(-c4ccccc4Cl)c(-c4ccc(Cl)cc4)c3CC(=O)O)CC2)c1 [[1.57], {1-(2-Chloro-phenyl)-5-(4-chloro-phenyl)-3-[4-(3-methylsulfonyl-phenyl)-piperidine-1-carbonyl]-1H-pyrazol-4-yl}-acetic acid] | 300 to 3000 nM |
| O=C(c1nn(-c2ccccc2Cl)c(-c2ccc(Cl)cc2)c1Cc1nn[nH]n1)N1CCC(c2ccc(F)cc2)CC1 [[3.3], [1-(2-Chloro-phenyl)-5-(4-chloro-phenyl)-4-(2H-tetrazol-5-ylmethyl)-1H-pyrazol-3-yl]-[4-(4-fluoro-phenyl)-piperidin-1-yl]-methanone] | < 300 nM |
| O=C(c1nn(-c2ccccc2Cl)c(-c2ccc(Cl)cc2)c1Cc1nn[nH]n1)N1CCC(c2ccccc2F)CC1 [[3.4], [1-(2-Chloro-phenyl)-5-(4-chloro-phenyl)-4-(2H-tetrazol-5-ylmethyl)-1H-pyrazol-3-yl]-[4-(2-fluoro-phenyl)-piperidin-1-yl]-methanone] | < 300 nM |
| O=C(c1nn(-c2ccccc2Cl)c(-c2ccc(Cl)cc2)c1Cc1nn[nH]n1)N1CCC(Oc2ccccc2)CC1 [[3.5], [1-(2-Chloro-phenyl)-5-(4-chloro-phenyl)-4-(2H-tetrazol-5-ylmethyl)-1H-pyrazol-3-yl]-[4-phenoxy-piperidin-1-yl]-methanone] | < 300 nM |
| O=C(c1nn(-c2ccccc2Cl)c(-c2ccc(Cl)cc2)c1Cc1nn[nH]n1)N1CCC(Oc2ccc(Cl)cc2)CC1 [[3.6], [1-(2-Chloro-phenyl)-5-(4-chloro-phenyl)-4-(2H-tetrazol-5-ylmethyl)-1H-pyrazol-3-yl]-[4-(4-chlorophenoxy)-piperidin-1-yl]-methanone] | < 300 nM |
| O=C(c1nn(-c2ccccc2Cl)c(-c2ccc(Cl)cc2)c1Cc1nn[nH]n1)N1CC(Oc2ccc(F)cc2)C1 [[3.7], [1-(2-Chloro-phenyl)-5-(4-chloro-phenyl)-4-(2H-tetrazol-5-ylmethyl)-1H-pyrazol-3-yl]-[3-(4-fluorophenoxy)-azetidin-1-yl]-methanone] | < 300 nM |
| O=C(c1nn(-c2ccccc2Cl)c(-c2ccc(Cl)cc2)c1Cc1nn[nH]n1)N1CCC(Oc2ccc(F)c(F)c2)CC1 [[3.8], [1-(2-Chloro-phenyl)-5-(4-chloro-phenyl)-4-(2H-tetrazol-5-ylmethyl)-1H-pyrazol-3-yl]-[4-(3,4-difluorophenoxy)-piperidin-1-yl]-methanone] | < 300 nM |
| O=C(c1nn(-c2ccccc2Cl)c(-c2ccc(Cl)cc2)c1Cc1nn[nH]n1)N1CCC(Oc2cccc(F)c2)CC1 [[3.9], [1-(2-Chloro-phenyl)-5-(4-chloro-phenyl)-4-(2H-tetrazol-5-ylmethyl)-1H-pyrazol-3-yl]-[4-(3-fluorophenoxy)-piperidin-1-yl]-methanone] | < 300 nM |
| O=C(c1nn(-c2ccccc2F)c(-c2ccc(Cl)cc2)c1Cc1nn[nH]n1)N1CCC(Oc2ccc(Cl)cc2)CC1 [[4.1], [1-(2-Fluoro-phenyl)-5-(4-chloro-phenyl)-4-(2H-tetrazol-5-ylmethyl)-1H-pyrazol-3-yl]-[4-(4-chlorophenoxy)-piperidin-1-yl]-methanone] | < 300 nM |
| O=C(c1nn(-c2ccccc2F)c(-c2ccc(Cl)cc2)c1Cc1nn[nH]n1)N1CCC(c2ccccc2F)CC1 [[4.2], [1-(2-Fluoro-phenyl)-5-(4-chloro-phenyl)-4-(2H-tetrazol-5-ylmethyl)-1H-pyrazol-3-yl]-[4-(2-fluoro-phenyl)-piperidin-1-yl]-methanone] | < 300 nM |

Now from value to molecule:

| IC50 | SMILES |
| --- | --- |
| < 300 nM | O=C(O)Cc1c(C(=O)N2CCC(OCc3ccccc3)CC2)nn(-c2ccccc2Cl)c1-c1ccc(Cl)cc1 [[1.49], [3-(4-Benzyloxy-piperidine-1-carbonyl)-1-(2-chloro-phenyl)-5-(4-chloro-phenyl)-1H-pyrazol-4-yl]-acetic acid] |
| < 300 nM | O=C(O)Cc1c(C(=O)N2CCC(CO)(c3ccccc3)CC2)nn(-c2ccccc2Cl)c1-c1ccc(Cl)cc1 [[1.50], [1-(2-Chloro-phenyl)-5-(4-chloro-phenyl)-3-(4-hydroxymethyl-4-phenyl-piperidine-1-carbonyl)-1H-pyrazol-4-yl]-acetic acid] |
| < 300 nM | N#Cc1ccccc1C1CCN(C(=O)c2nn(-c3ccccc3Cl)c(-c3ccc(Cl)cc3)c2CC(=O)O)CC1 [[1.51], {1-(2-Chloro-phenyl)-5-(4-chloro-phenyl)-3-[4-(2-cyano-phenyl)-piperidine-1-carbonyl]-1H-pyrazol-4-yl}-acetic acid] |
| < 300 nM | O=C(O)Cc1c(C(=O)N2CCC(c3ccccc3Cl)CC2)nn(-c2ccccc2Cl)c1-c1ccc(Cl)cc1 [[1.54], {1-(2-Chloro-phenyl)-5-(4-chloro-phenyl)-3-[4-(2-chloro-phenyl)-piper-idine-1-carbonyl]-1H-pyrazol-4-yl}-acetic acid] |
| < 300 nM | O=C(O)Cc1c(C(=O)N2CCC(c3cccc(F)c3)C2)nn(-c2ccccc2Cl)c1-c1ccc(Cl)cc1 (stereo not shown) [[1.55], {1-(2-Chloro-phenyl)-5-(4-chloro-phenyl)-3-[3-(3-fluoro-phenyl)-pyrrolidine-1-carbonyl]-1H-pyrazol-4-yl}-acetic acid] |
| < 300 nM | O=C(O)Cc1c(C(=O)N2CCC(Oc3ccccc3)CC2)nn(-c2ccccc2Cl)c1-c1ccc(Cl)cc1 [[1.58]] |
| < 300 nM | O=C(O)Cc1c(C(=O)N2CCC(Oc3ccc(Cl)cc3)CC2)nn(-c2ccccc2Cl)c1-c1ccc(Cl)cc1 [[1.59], {1-(2-Chloro-phenyl)-5-(4-chloro-phenyl)-3-[4-(4-chlorophenoxy)-piperidine-1-carbonyl]-1H-pyrazol-4-yl}-acetic acid] |
| < 300 nM | O=C(O)Cc1c(C(=O)N2CC(Oc3ccc(F)cc3)C2)nn(-c2ccccc2Cl)c1-c1ccc(Cl)cc1 [[1.60], {1-(2-Chloro-phenyl)-5-(4-chloro-phenyl)-3-[3-(4-fluorophenoxy)-azetidine-1-carbonyl]-1H-pyrazol-4-yl}-acetic acid] |
| < 300 nM | O=C(O)Cc1c(C(=O)N2CCC(Oc3ccc(F)c(F)c3)CC2)nn(-c2ccccc2Cl)c1-c1ccc(Cl)cc1 [[1.61], {1-(2-Chloro-phenyl)-5-(4-chloro-phenyl)-3-[4-(3,4-difluorophenoxy)-piperidine-1-carbonyl]-1H-pyrazol-4-yl}-acetic acid] |
| < 300 nM | O=C(O)Cc1c(C(=O)N2CCC(Oc3cccc(F)c3)CC2)nn(-c2ccccc2Cl)c1-c1ccc(Cl)cc1 [[1.62], {1-(2-Chloro-phenyl)-5-(4-chloro-phenyl)-3-[4-(3-fluorophenoxy)-piperidine-1-carbonyl]-1H-pyrazol-4-yl}-acetic acid] |
| < 300 nM | O=C(O)Cc1c(C(=O)N2CCC(Oc3ncc(F)cn3)CC2)nn(-c2ccccc2Cl)c1-c1ccc(Cl)cc1 [[1.63], {1-(2-Chloro-phenyl)-5-(4-chloro-phenyl)-3-[4-(5-fluoropyrimidin-2-oxy)-piperidine-1-carbonyl]-1H-pyrazol-4-yl}-acetic acid] |
| < 300 nM | O=C(O)Cc1c(C(=O)N2CCC(Oc3ccc(F)cc3)C2)nn(-c2ccccc2Cl)c1-c1ccc(Cl)cc1 (stereo not shown) [[1.64], {1-(2-Chloro-phenyl)-5-(4-chloro-phenyl)-3-[3-(4-fluorophenoxy)-pyrrolidine-1-carbonyl]-1H-pyrazol-4-yl}-acetic acid] |
| < 300 nM | Cc1c(C(=O)N2CCC(C(=O)O)(c3ccccc3)CC2)nn(-c2ccccc2Cl)c1-c1ccc(Cl)cc1 [[2.1], 1-[5-(4-Chloro-phenyl)-1-(2-chloro-phenyl)-4-methyl-1H-pyrazole-3-carbonyl]-4-phenyl-piperidine-4-carboxylic acid] |
| < 300 nM | O=C(c1nn(-c2ccccc2Cl)c(-c2ccc(Cl)cc2)c1Cc1nn[nH]n1)N1CCC(O)(c2ccc(F)cc2)CC1 [[3.2], [1-(2-Chloro-phenyl)-5-(4-chloro-phenyl)-4-(2H-tetrazol-5-ylmethyl)-1H-pyrazol-3-yl]-[4-(4-fluoro-phenyl)-4-hydroxy-piperidin-1-yl]-methanone] |
